Measurements taken from patent publication US4310660A, “Lincomycin compounds” (The Upjohn Company, priority 1980, dated 1982).
≈ marks a conversion by molar mass, not a printed value. Where two headings read alike, the source gives them in different places.

Assays:
[1] = test system: S. hemolyticus; assay: MIC, test procedure as given supra; format: cell-based; settings: UC152, 20 h, S. hemolyticus UC 152; read-out: MIC
Experimental: (§1) The Minimal Inhibitory Concentration (MIC's) of both compounds Vs. aerobic bacteria is determined using a standard microplate broth-dilution method. Brain Heart Infusion (BHI-Difco) broth medium is used, and the plates are incubated at 37° C. for 20 hrs.
(§2) The Minimal Inhibitory Concentration (MIC's) of a representative number of the compounds prepared in Examples 2-8 follows. The test procedure is as given supra.

[2] = test system: S. lutea; assay: MIC, test procedure as given supra; format: cell-based; settings: Micrococcus luteus, UC130, 20 h; S. lutea UC 130
Experimental: as §1, §2

[3] = test system: Salmonella schottmuelleri; assay: MIC vs. aerobic bacteria, microplate broth-dilution (BHI); format: cell-based; settings: Salmonella
Experimental: as §1

[4] = test system: Diplococcus pneumoniae; assay: as above; format: cell-based; settings: Streptococcus pneumoniae
Experimental: as §1

[5] = test system: Streptococcus faecalis; assay: as above; format: cell-based; settings: Enterococcus faecalis
Experimental: as §1

[6] = test system: Pseudomonas aeruginosa; assay: as above; format: cell-based
Experimental: as §1

[7] = test system: Escherichia coli; assay: as above; format: cell-based
Experimental: as §1

[8] = test system: Klebsiella pneumoniae; assay: as above; format: cell-based; settings: Klebsiella pneumoniae
Experimental: as §1

[9] = test system: Proteus vulgaris; assay: as above; format: cell-based; settings: Proteus vulgaris, UC93, 20 h, P. vulgaris UC 93; read-out: MIC
Experimental: as §1

[10] = test system: Staphylococcus aureus; assay: as above; format: cell-based; settings: Staphylococcus aureus
[11] = test system: S. lutea; assay: Qual. Assay vs. S. lutea; format: cell-based; settings: qualitative
[12] = test system: D. pneumoniae III; assay: Mouse Protection Test; format: in vivo; settings: for ED50: Streptococcus pneumoniae, 168 h, read-out: Median Protective Dose (CD50); for ED50 / Median Protective Dose (CD50): strain MPI III, two experiments listed; for Median Protective Dose (CD50): 10080 min, listed as U-60970E . Hcl
Text: (§3) Immediately before use, the suspensions were thawed quickly and properly diluted. Infection was via the intrapertioneal route.
(§4) Treatment of the infected groups was begun immediately and continued once per day for 4 days (first 24 hr period=1). Groups of untreated mice served as virulence controls for the culture.
(§5) Seven days after the treatment regimen was begun the surviving animals were sacrificed and the median protective dose of the antibiotic calculated on the basis of mortality rates in the treatment groups. The median protective dose and its 95% confidence interval were calculated according to the method of Spearmen & Karber as programmed on a 360 digital computer.
(§6) U-60,970E was also tested in vivo in standard laboratory mice which were experimentally infected with bacteria. The test was conducted in comparison with U-57,930E.

[13] = test system: D. pneumoniae I; assay: Mouse Protection Test; format: in vivo; settings: for ED50: Streptococcus pneumoniae, 168 h, strain Felton I, read-out: Median Protective Dose (CD50)
Text: as §3, §4, §5, §6

[14] = test system: Streptococcus pyogenes; assay: MIC vs. aerobic bacteria, microplate broth-dilution (BHI); format: cell-based; settings: UC152, UC 152, read-out: Minimal Inhibitory Concentration (MIC)
Experimental: as §1

[15] = test system: S. hemolyticus; assay: Mouse Protection Test; format: in vivo; settings: for ED50: 168 h, read-out: Median Protective Dose (CD50)
Text: as §3, §4, §5

[16] = test system: S. aureus; assay: Mouse Protection Test; format: in vivo; settings: for ED50: Staphylococcus aureus, read-out: Median Protective Dose (CD50)
Text: as §3, §4, §5

[17] = test system: bacteria; assay: antibacterial activity (general statement)
[18] = UC126, UC 126, read-out: Minimal Inhibitory Concentration (MIC)
[19] = UC41, Diplococcus pneumoniae I, UC 41, read-out: Minimal Inhibitory Concentration (MIC)
[20] = UC694, UC 694, read-out: Minimal Inhibitory Concentration (MIC)
[21] = UC95, UC 95, read-out: Minimal Inhibitory Concentration (MIC)
[22] = UC45, UC 45, read-out: Minimal Inhibitory Concentration (MIC)
[23] = UC58, UC 58, read-out: Minimal Inhibitory Concentration (MIC)
[24] = UC76, S. aureus UC 76, read-out: Minimal Inhibitory Concentration (MIC)
[25] = UC570, S. aureus UC 570, read-out: Minimal Inhibitory Concentration (MIC)
[26] = UC746, S. aureus UC 746, read-out: Minimal Inhibitory Concentration (MIC)

Question: What does the source list for `CCc1ccnc(C(=O)N[C@@H]([C@H]2O[C@H](SC)[C@H](O)[C@@H](O)[C@H]2O)[C@H](C)O)c1` [U-45,659]?
Answer: MIC [1]: 500 µg/mL (≈ 1290 µM); MIC [2]: 1000 µg/mL (≈ 2590 µM); MIC ([3]; UC126, 20 h, S. schottmuelleri UC 126): > 1000 µg/mL; MIC ([4]; UC41, 20 h, D. pneumoniae UC 41, read-out: MIC): 500 µg/mL (≈ 1290 µM); MIC ([5]; UC694, 20 h, St. faecalis UC 694, read-out: MIC): > 1000 µg/mL; MIC ([6]; UC95, 20 h, Ps. aeruginosa UC 95, read-out: MIC): 1000 µg/mL (≈ 2590 µM); MIC ([7]; UC45, 20 h, E. coli UC 45, read-out: MIC): > 1000 µg/mL; MIC ([8]; UC58, 20 h, K. pneumoniae UC 58, read-out: MIC): 1000 µg/mL (≈ 2590 µM); MIC [9]: > 1000 µg/mL; MIC ([10]; UC76, 20 h, S. aureus UC 76, read-out: MIC): > 1000 µg/mL; MIC ([10]; UC570, 20 h, S. aureus UC 570, read-out: MIC): > 1000 µg/mL; MIC ([10]; UC746, 20 h, S. aureus UC 746, read-out: MIC): 1000 µg/mL (≈ 2590 µM)

Question: Which “Qual. Assay vs. S. lutea” value [11] does the source give for `CS[C@H]1O[C@H]([C@H](NC(=O)c2cccnc2)[C@H](C)Cl)[C@H](O)[C@H](O)[C@H]1O` [U-46,138] here?
Answer: The value was “Inactive”.

Question: Which ED50 ([12]; po, oral) does the source give for `CCCC[C@@H]1CCN[C@H](C(=O)N[C@@H]([C@H]2O[C@H](SC)[C@H](O)[C@@H](O)[C@H]2O)[C@H](C)Cl)C1` [U-60,970E, 4-Cis-n-Butyl-L-Pipecolic Acid Amide of 7-Cl-MTL] here?
Answer: Its ED50 is 3.13 mg/kg.

Question: And the ED50 ([12]; sc, subcutaneous)?
Answer: The ED50 was 0.44 mg/kg.

Question: What about the “in vivo activity compared with U-57,930E” value ([12]; infected mice) of the same compound?
Answer: The value was “significantly more active”.

Question: And the “Median Protective Dose (CD50)” value ([12]; oral)?
Answer: The value was 4.12 (2.93-5.81) mg/kg.

Question: And the “Median Protective Dose (CD50)” value ([12]; subcutaneous)?
Answer: Its value is 0.29 (0.21-0.41) mg/kg.

Question: What about the ED50 ([13]; oral) of the same compound?
Answer: The ED50 was 4.42 mg/kg.

Question: What about the ED50 ([13]; sc, subcutaneous) of the same compound?
Answer: The ED50 was 0.67 mg/kg.

Question: And the “in vivo activity compared with U-57,930E” value ([13]; infected mice)?
Answer: Its value is “significantly more active”.

Question: And the MIC [3, 18]?
Answer: Its MIC is 31.2 µg/mL (≈ 71.1 µM).

Question: What about the MIC [4, 19] of the same compound?
Answer: Its MIC is 0.016 µg/mL (≈ 0.0364 µM).

Question: What about the MIC [5, 20] of the same compound?
Answer: Its MIC is 0.25 µg/mL (≈ 0.569 µM).

Question: What about the MIC [14] of the same compound?
Answer: The MIC was 0.008 µg/mL (≈ 0.0182 µM).

Question: And the MIC [6, 21]?
Answer: Its MIC is over 125 µg/mL.

Question: And the MIC [7, 22]?
Answer: Its MIC is 31.2 µg/mL (≈ 71.1 µM).

Question: What about the MIC [8, 23] of the same compound?
Answer: The MIC was 7.8 µg/mL (≈ 17.8 µM).

Question: What about the ED50 ([15]; strain C203, oral) of the same compound?
Answer: Its ED50 is 2.18 mg/kg.

Question: What about the “in vivo activity compared with U-57,930E” value ([15]; infected mice) of the same compound?
Answer: Its value is “essentially the same activity”.

Question: And the ED50 ([15]; sc, strain C203, subcutaneous)?
Answer: Its ED50 is 0.35 mg/kg.

Question: What about the ED50 ([16]; UC76, 168 h, strain UC 76, oral) of the same compound?
Answer: The ED50 was 8.12 mg/kg.

Question: What about the ED50 ([16]; UC76, sc, 168 h, strain UC 76, subcutaneous) of the same compound?
Answer: The ED50 was 1.32 mg/kg.

Question: And the “in vivo activity compared with U-57,930E” value ([16]; infected mice)?
Answer: Its value is “essentially the same activity”.

Question: And the MIC [10, 24]?
Answer: The MIC was 0.125 µg/mL (≈ 0.285 µM).

Question: What about the MIC [10, 25] of the same compound?
Answer: Its MIC is 0.25 µg/mL (≈ 0.569 µM).

Question: What about the MIC [10, 26] of the same compound?
Answer: Its MIC is 0.062 µg/mL (≈ 0.141 µM).

Question: How did the “antibacterial potency compared with related form” value [17] turn out when `CC[C@H]1CCN[C@@H](C(=O)N[C@@H]([C@H]2O[C@H](SC)[C@H](O)[C@@H](O)[C@H]2O)[C@H](C)Cl)C1` [V A] was run?
Answer: The value was “not as potent an antibacterial agent as the L-cis compound”.

Question: What about the MIC [3, 18] of the same compound?
Answer: Its MIC is over 1000 µg/mL.

Question: What about the MIC [4, 19] of the same compound?
Answer: The MIC was 62.5 µg/mL (≈ 152 µM).

Question: What about the MIC [5, 20] of the same compound?
Answer: The MIC was over 1000 µg/mL.

Question: What about the MIC [14] of the same compound?
Answer: The MIC was 62.5 µg/mL (≈ 152 µM).

Question: What about the MIC [6, 21] of the same compound?
Answer: The MIC was over 1000 µg/mL.

Question: And the MIC [7, 22]?
Answer: The MIC was over 1000 µg/mL.

Question: And the MIC [8, 23]?
Answer: The MIC was over 1000 µg/mL.

Question: And the MIC [10, 24]?
Answer: The MIC was 250 µg/mL (≈ 608 µM).

Question: And the MIC [10, 25]?
Answer: The MIC was 1000 µg/mL (≈ 2430 µM).

Question: What about the MIC [10, 26] of the same compound?
Answer: The MIC was 125 µg/mL (≈ 304 µM).
